Reference: patent US10239825B2, “Ketamine derivatives” (Auckland Uniservices Limited, priority 2013, dated 2019)

Assays:
[1] = tested on: adult female Sprague-Dawley rats; test: rat infusion study: loss/recovery of righting reflex and walk (anaesthetic effect); assay type: in vivo; conditions: for minimal effective dose: Rattus norvegicus, iv, read-out: LRR Dose; for minimal effective dose / LRR Dose: total drug administered to achieve loss of righting reflex, i.v. infusion; for potency (in words) / recovery (in words) / properties of racemate versus enantiomer (in words): rat infusion study, discussion; for LRR Dose, head-to-head ratio to ketamine / LRR Time, head-to-head ratio to ketamine / RRR Time, head-to-head ratio to ketamine / Walk Time, head-to-head ratio to ketamine: ratio compound/ketamine; for Walk Time: time from end of infusion to independent locomotion; for RRR Time: time from end of infusion to recovery of righting reflex; for LRR Time: time from onset of i.v. infusion to loss of righting reflex, 20 mg/kg/min initially
Description: (§1) All animal experiments were conducted at the Ruakura Research Centre, Hamilton, New Zealand, using experimental protocols reviewed and approved by the Ruakura Animal Ethics Committee (ethics ref 12604).
(§2) Following acquisition of baseline physiologic parameters (heart rate, respiratory rate, PWR, and righting reflex (RR)) adult female Sprague-Dawley rats of approximately 350-450 g were put under non-traumatic restraint and the marginal vein of the tail was cannulated. Ketamine or a compound of the invention at 10 mg/ml was administered via a minibore extension tube adequately secured to the tail. Infusions were commenced at a rate (weight-adjusted) to deliver 20 mg/kg/min initially (until the pedal withdrawal reflex score PWR=1), then were reduced to a rate of 6.7 mg/kg/min. Infusion rate was then titrated in an up-and-down fashion to maintain dorsal recumbency and a PWR=1 to 10 minutes before cessation. Three rats were used in each study, with each group of rats also acting as their own ketamine control. The order of study drug administration was determined by prior odds/evens randomisation with a recovery interval of at least one hour afforded between experiments. PWR and RR were recorded at 1 minute intervals throughout. The times from cessation of infusion to return of righting reflex (RRR), and from cessation of infusion to the animals displaying independent locomotion (walk) were recorded.
Loss of Righting Reflex (LRR):
This is primarily used to assess anaesthetic hypnotic effect. Righting reflex is judged absent when the rat fails to right from a position of dorsal recumbency to a position of sternal recumbency on three attempts performed in rapid succession. Dose to LRR is termed effective potency.

[2] = tested on: adult female Sprague-Dawley rats; test: rat infusion study: pedal withdrawal reflex PWR = 1 (analgesic effect); assay type: in vivo; conditions: for minimal effective dose: Rattus norvegicus, iv; for minimal effective dose / PWR = 1 Dose: total drug administered to achieve PWR = 1, i.v. infusion; for PWR = 1 Dose, head-to-head ratio to ketamine / PWR = 1 Time, head-to-head ratio to ketamine: ratio compound/ketamine; for PWR = 1 Time: time from onset of i.v. infusion to PWR = 1
Description: as §1, §2
Pedal Withdrawal Reflex (PWR) Scoring:
Nociceptive testing in animals was conducted via 1 second application of constant pressure (firm digital pressure) over the forepaw of the animal. Pedal withdrawal reflex testing is primarily used to assess analgesic effect, and responses are graded accordingly: 0, absent; 1, flicker; 2, moderate withdrawal; 3, fast withdrawal; 4, Fast withdrawal with cry/preceding apnoea (modified from Buitrago, S. et al. J. Amer. Assoc. Lab. Animal. Sci. 2008, 47, 11-17).

SMILES | minimal effective dose [1] [mg/kg] | recovery, fold faster than ketamine ([1]; after discontinuation of infusion) | potency (in words) [1] | LRR Dose, head-to-head ratio to ketamine [1] | LRR Time, head-to-head ratio to ketamine [1] | RRR Time, head-to-head ratio to ketamine [1] | Walk Time, head-to-head ratio to ketamine [1] | Walk Time [1] [s] | RRR Time [1] [s] | LRR Time [1] [s] | minimal effective dose [2] [mg/kg] | PWR = 1 Dose, head-to-head ratio to ketamine [2] | PWR = 1 Time, head-to-head ratio to ketamine [2] | PWR = 1 Time [2] [s] | LRR Dose [1] [mg/kg] | PWR = 1 Dose [2] [mg/kg] | melting point [°C] | recovery (in words) [1] | properties of racemate versus enantiomer (in words) [1]
CC(=O)OCCCN[C@]1(c2ccccc2Cl)CCCCC1=O.Cl [(S)-C3OAc, (S)-3-((1-(2-Chlorophenyl)-2-oxocyclohexyl)amino)propyl Acetate Hydrochloride] | 26 ± 3 | 1.5-2 fold | about as potent as ketamine | 1.30 | 1.37 | 0.65 | 0.51 | 983 ± 93 | 566 ± 30 | 81 ± 10 | 34 ± 1 | 1.10 | 1.12 | 104 ± 7 |  |  |  |  | 
CCCOC(=O)CCCNC1(c2ccccc2Cl)CCCCC1=O.Cl (racemic) [rac-C3nPr, N-Propyl 4-((1-(2-chlorophenyl)-2-oxocyclohexyl)amino)butanoate Hydrochloride] |  |  |  | 5.95 | 4.77 | 0.012 | 0.05 | 65 ± 33 | 10 ± 5.5 | 329 ± 106 |  | 7.46 | 6.64 | 558 ± 42 | 137 ± 48 | 209 ± 20 |  |  | 
CCOC(=O)CCCNC1(c2ccccc2Cl)CCCCC1=O.Cl (racemic) [rac-C3Et, Ethyl 4-((1-(2-chlorophenyl)-2-oxocyclohexyl)amino)butanoate Hydrochloride] | 24 ± 2 |  |  | 1.41 | 1.19 | 0.062 | 0.08 | 170 ± 17 | 95 ± 12 | 70 ± 6 | 44 ± 5 | 1.83 | 1.80 | 137 ± 14 |  |  | 186 to 189 |  | 
CC(C)OC(=O)CCCNC1(c2ccccc2Cl)CCCCC1=O.Cl (racemic) [rac-C3iPr, Isopropyl 4-((1-(2-chlorophenyl)-2-oxocyclohexyl)amino)butanoate hydrochloride] | 42 ± 9 |  |  | 1.83 | 1.81 | 0.042 | 0.08 | 110 ± 45 | 37 ± 22 | 125 ± 21 | 66 ± 17 | 2.36 | 2.29 | 192 ± 47 |  |  | 167 to 169 |  | 
CCOC(=O)CCCCNC1(c2ccccc2Cl)CCCCC1=O.Cl (racemic) [rac-C4Et, Rac-Ethyl 5-((1-(2-chlorophenyl)-2-oxocyclohexyl)amino)pentanoate hydrochloride] | 34 ± 4 |  |  | 2.00 | 1.73 | 0.09 | 0.05 | 158 ± 22 | 134 ± 22 | 97 ± 8 | 57 ± 12 | 2.48 | 2.26 | 172 ± 36 |  |  | 169 to 172 |  | 
CC(C)OC(=O)CCN[C@]1(c2ccccc2Cl)CCCCC1=O.Cl [(S)-C2iPr, (S)-Isopropyl 3-((1-(2-chlorophenyl)-2-oxocyclohexyl)amino)propanoate hydrochloride] | 74 ± 9 |  | only half as potent | 2.46 | 3.41 | 0.02 | 0.19 | 224 ± 90 | 15 ± 15 | 222 ± 18 | 84 ± 4 | 2.47 | 3.14 | 247 ± 13 |  |  | 208 to 211 | faster recoveries than the corresponding racemates | 
COC(=O)CCCCNC1(c2ccccc2Cl)CCCCC1=O.Cl (racemic) [rac-C4Me, Rac-Methyl 5-((1-(2-chlorophenyl)-2-oxocyclohexyl)amino)pentanoate Hydrochloride] | 34 ± 7 |  |  | 1.70 | 1.31 | 0.090 | 0.086 | 126 ± 32 | 99 ± 16 | 92 ± 14 | 44 ± 10 | 2.00 | 1.53 | 124 ± 21 |  |  |  |  | broadly equivalent properties
CCOC(=O)CCN[C@]1(c2ccccc2Cl)CCCCC1=O.Cl [(S)-C2Et, (S)-Ethyl 3-((1-(2-chlorophenyl)-2-oxocyclohexyl)amino) propanoate Hydrochloride] |  |  | only half as potent | 2.95 | 3.22 | 0.05 | 0.04 | 80 ± 8 | 62 ± 8 | 171 ± 54 |  | 2.38 | 2.53 | 185 ± 55 | 59 ± 19 | 62 ± 20 |  | faster recoveries than the corresponding racemates | 
CCCOC(=O)CCCCNC1(c2ccccc2Cl)CCCCC1=O.Cl (racemic) [rac-C4nPr, N-Propyl 5-((1-(2-chlorophenyl)-2-oxocyclohexyl)amino)pentanoate Hydrochloride] |  |  |  | 3.56 | 4.17 | 0.05 | 0.08 | 90 ± 30 | 45 ± 15 | 271 ± 97 |  | 3.19 | 3.60 | 277 ± 97 | 82 ± 34 | 83 ± 34 |  |  | 
CCCOC(=O)CCNC1(c2ccccc2Cl)CCCCC1=O.Cl (racemic) [rac-C2nPr, N-Propyl 3-((1-(2-chlorophenyl)-2-oxocyclohexyl)amino)propanoate Hydrochloride] |  |  |  | 7.28 | 7.92 |  |  | 0 | 0 | 404 ± 196 |  | 6.48 | 6.67 | 420 ± 180 | 131 ± 62 | 136 ± 67 |  |  | 
CC(=O)OCCCNC1(c2ccccc2Cl)CCCCC1=O.Cl (racemic) [rac-C3OAc, Rac-3-((1-(2-Chlorophenyl)-2-oxocyclohexyl)amino)propyl Acetate Hydrochloride] |  |  |  |  |  |  |  |  |  |  |  |  |  |  |  |  | 180 to 183 |  | 
COC(=O)CCCCN[C@]1(c2ccccc2Cl)CCCCC1=O.Cl [(S)-C4Me, (S)-Methyl 5-((1-(2-chlorophenyl)-2-oxocyclohexyl)amino)pentanoate Hydrochloride] |  |  |  | 1.80 | 1.94 | 0.07 | 0.51 |  |  |  |  | 1.76 | 1.81 |  |  |  |  |  | broadly equivalent properties
